# Values of other authors as cited in patent US11874283B2, “Method and compositions for the treatment and detection of endothelin-1 related kidney diseases” (MOREHOUSE SCHOOL OF MEDICINE, priority 2010, dated 2024).
# Ends that are not written are not given here.
# System: ET-1 ELISA
# Conditions: as determined by the manufacturer
row,Substance,Cross reactivity
1,"ET-3: endothelin peptide cross-reacting in the ET-1 ELISA (CTCFTYKDKECVYYCHLDIIW; ends and bridges not checked; cysteine pairing not given here; UniProt P14138 97-117, looked up)",14%
2,"big ET-1: biologically inactive 38-amino acid precursor of ET-1 (CSCSSLMDKECVYFCHLDIIWVNTPEHVVPYGLGSPRS; ends and bridges not checked; cysteine pairing not given here; UniProt P05305 53-90, looked up)",less than 1%
3,"ET-2: endothelin peptide cross-reacting in the ET-1 ELISA (CSCSSWLDKECVYFCHLDIIW; ends and bridges not checked; cysteine pairing not given here; UniProt P20800 49-69, looked up)",45%
